Test results published in patent publication US10100088B2, “Glycopeptide derivatives for the preservation and protection of biological materials and microorganisms” (TFCHEM, priority 2014, dated 2018).
Read-outs that look alike come from different tables or passages of the source.

Experiments:
[1] = system: human neonatal skin fibroblasts (CCD-27SK, ATCC CRL-1475); assay: Starvation (serum deprivation) stress, neutral red uptake viability; assay type: cell-based
Method: Induced stresses were performed as follow: Starvation
(§1) The neutral red uptake assay was used for the determination of cell viability. This assay is based on the ability of viable cells to incorporate and bind the supravital dye neutral red in its lysosomes. So, only the viable cells are dyed. At different times after the stress assay (T0), the plates were incubated with neutral red solution for 3.5 hours. The cells are subsequently washed, the dye is extracted in each well and the absorbance is read using a spectrophotometer.
(§2) For sampling, 1 mL of DMEM (without phenol red indicator) with neutral red (OD=0.110) was added to the cells for 3.5 hours (37° C., 10% CO2). After incubation, the medium was removed, two washes of PBS were realized and 1 mL of extraction solution (absolute ethanol 49%, ultrapure water 49%, glacial acetic acid 2%) was added. Plates were placed 15 minutes on rotary shaker in the dark before reading OD at 540 nm.
The OD540 nm average value of positive control was considered as 100% of viability.
(§3) The percentage of viability for each assay was calculated as follow: % viability assay=(OD540 nm of tested solution−blank)*100/(OD540 nm of positive control−blank).

[2] = system: human neonatal skin fibroblasts; details: for Lysis following bacterial stress at 48 h (OD490 nm): LDH release
Method: The medium was changed every two days by 37° C. preheated fresh medium.

[3] = system: human neonatal skin fibroblasts; assay: UV stress (11 J/cm^2), neutral red uptake viability; assay type: cell-based
Method: as §1, §2, §3

[4] = Comparative stability towards basic conditions (NaOD in D2O), 1H NMR; assay type: physicochemical
Method: In a first set of experiments (experiments 1 to 7 in table 9), X (10 mg, 1.72 10^−2 mmol) was reacted with 2 to 8 equivalents of NaOD in a total volume of 355 μL of deuterium oxide ([X]=4.8 10^−2 mmol·mL^−1) during 2 h 30 before being acidified with 1M DCl in D2O. To be sure that all compounds in solution are in their acidic form, the equivalents of DCl are adjusted to 3 more equivalents of DCl than the amount required to neutralize the solution (nDCl=nNaOD+3). The volume was adjusted to 544 μL with deuterium oxide.
In a second set of experiments (experiments 8 to 14 in table 9), 17 (10 mg, 1.66 10^−2 mmol) was reacted with 2 to 8 equivalents of NaOD in a total volume of 343 μL of deuterium oxide ([17]=4.8 10^−2 mmol·mL^−1) during 2 h 30 before being acidified with 1M DCl in D2O. To be sure that all compounds in solution are in their acidic form, the equivalents of DCl are adjusted to 3 more equivalents of DCl than the amount required to neutralize the solution (nDCl=nNaOD+3). The volume was adjusted to 526 μL with deuterium oxide.
^1H NMR analyses were performed on each experiment. It is why experiments were realized in deuterium oxide and using 1M NaOD in D2O as base and 1M DCl in D2O as acid.
^1H NMR allows indeed the determination of the amount of compound X1 formed, by comparison between the integration corresponding to the methylene group of the lysine side chain connected to the nitrogen atom in X (CH2NGP) (3.3 ppm) and the integrationof the same methylene group in X1 (CH2Lys hydrolyzed) (3.0 ppm).
To confirm the structure of compounds X1 and X2, resulting from hydrolysis of X, the following experiment was realized, in which X (10 mg, 1.72 10^−2 mmol) was reacted with 8 equivalents of NaOD in a total volume of 355 μL of deuterium oxide ([X]=4.8 10^−2 mmol·mL^−1) during 3 days before being acidified with 1M DCl in D2O. In these conditions, almost the totality of compound X is hydrolyzed, the percentage of hydrolysis of compound X being 85% as determined by ^1H NMR as evidence in table 11.

For `C[C@H](NC(=O)[C@H](C)NC(=O)[C@@H](N)CCCCNCC(F)(F)C1(O)O[C@H](CO)[C@H](O)[C@H](O)[C@H]1O)C(=O)O.Cl.Cl` (some centres unmarked) [Compound 17], the Percentage of viability ([1]; D 1 after serum deprivation, 5 mg/mL (Table 2)) was 75%, the Percentage of viability ([1]; D 1 after serum deprivation, 10 mg/mL (Table 2)) was 71% and the Percentage of viability ([1]; D 4 after serum deprivation, 5 mg/mL (Table 2)) was 54%. It also gave a Percentage of viability ([1]; D 4 after serum deprivation, 10 mg/mL (Table 2)) of 61%, a Percentage of viability ([1]; D4 after serum deprivation, 10 mg/mL (Table 4)) of 116% and a Percentage of viability ([1]; D 7 after serum deprivation, 5 mg/mL (Table 2)) of 45%. The Percentage of viability ([1]; D 7 after serum deprivation, 10 mg/mL (Table 2)) was 55%, the “preservative/protective effect on skin fibroblasts (in words)” value ([1]; starvation medium) was “significant preservative/protective effect” and the “Lysis following bacterial stress at 48 h (OD490 nm)” value (from here on “Lysis following bacterial stress”) ([2]; 5 mg/mL) was 0.333 ± 0.003 OD490 nm. For the same compound, the “protective effect against bacterial stress (in words)” value ([2]; 5 mg/ml to 15 mg/ml) was “protective effect on cells against bacterial stress”, the “Lysis following bacterial stress” value ([2]; 10 mg/mL) was 0.293 ± 0.002 OD490 nm and the “Lysis following bacterial stress” value ([2]; 15 mg/mL) was 0.270 ± 0.005 OD490 nm. For the same compound, the “preservative/protective effect against UV stress (in words)” value [3] was “preservative/protective effect against UV stress”, the “Percentage of viability following UV stress (11 J/cm^2)” value (shortened to “Percentage … (11 J/cm^2)”) ([3]; 1 h after irradiation, 5 mg/mL) was 55% and the “Percentage … (11 J/cm^2)” value ([3]; 1 h after irradiation, 10 mg/mL) was 53%. The “Percentage … (11 J/cm^2)” value ([3]; 1 h after irradiation, 15 mg/mL) was 50%, the “Percentage … (11 J/cm^2)” value ([3]; 3 h after irradiation, 5 mg/mL) was 63% and the “Percentage … (11 J/cm^2)” value ([3]; 3 h after irradiation, 10 mg/mL) was 46%. For the same compound, the “Percentage … (11 J/cm^2)” value ([3]; 3 h after irradiation, 15 mg/mL) was 50%, the “Percentage … (11 J/cm^2)” value ([3]; 24 h after irradiation, 5 mg/mL) was 82% and the “Percentage … (11 J/cm^2)” value ([3]; 24 h after irradiation, 10 mg/mL) was 94%. For the same compound, the “Percentage … (11 J/cm^2)” value ([3]; 24 h after irradiation, 15 mg/mL) was 84%, the “growth or regenerative effect on stressed cells (in words)” value ([3]; viability increased in time after UV) was “growth or regenerative effect” and the “% hydrolyzed” value ([4]; 2 eq NaOD, 2 h 30, D2O) was 0%. For the same compound, the “stability towards basic conditions (in words)” value ([4]; 2 to 8 eq NaOD, 2 h 30, 1H NMR) was “absence of degradation”, the “% hydrolyzed” value ([4]; 3 eq NaOD, 2 h 30, D2O) was 0% and the “% hydrolyzed” value ([4]; 4 eq NaOD, 2 h 30, D2O) was 0%. The “% hydrolyzed” value ([4]; 5 eq NaOD, 2 h 30, D2O) was 0%, the “% hydrolyzed” value ([4]; 6 eq NaOD, 2 h 30, D2O) was 0% and the “% hydrolyzed” value ([4]; 7 eq NaOD, 2 h 30, D2O) was 0%. For the same compound, the “% hydrolyzed” value ([4]; 8 eq NaOD, 2 h 30, D2O) was 0% and the “% hydrolyzed” value ([4]; Control, 0 eq NaOD) was 0%.
